Measured values as given in US7977384B1, “Anticancer tobacco cembranoids” (The University of Louisiana at Monroe, priority 2007, dated 2011).
Read-outs that look alike come from different tables or passages of the source. Ends that are not written are not given here.

Columns and labels:
[1] = system: highly malignant +SA mouse mammary epithelial cell line; experiment: Antiproliferative MTT assay on +SA mammary epithelial cells; assay type: cell-based; conditions: for IC50: 4-day culture, MTT
Method: The antiproliferative effects of semisynthetic derivatives were tested in culture on the highly malignant +SA mouse mammary epithelial cell line maintained on serum-free media and containing 10 ng/mL EGF and 10 μg/mL insulin as mitogens. […] After a 4-day culture period, viable +SA cell number was determined by the 3-(4,5-dimethylthi-azol-2yl)-2,5-diphenyl tetrazolium bromide (MTT) colorimetric assay.

[2] = system: PC-3M cells; experiment: MTT proliferation assay, prostate cell line PC-3M; assay type: cell-based, human; conditions: 50 nM dose
Method: Proliferation of PC-3M MTT Assays. The growth of prostate cell line PC-3M was measured by 3-(4,5-dimethylthi-azol-2yl)-2,5-diphenyl tetrazolium bromide (MTT) assay. Exponentially growing cells were plated in a 96-well plate at a density of 8×10^3 cells per well and allowed to attach for 24 hours. Complete growth medium was replaced with 100 μl of RPMI serum-free medium (GIBCO-Invitrogen, NY) and culture continued at 37° C. under 5% CO2. After 24 hours of culture, the cells were treated with MTT solution at 37° C. for 4 hours. The color reaction was stopped by the addition of solubilization/stop solution (100 μl/well), and the incubation at 37° C. continued to completely dissolve the formazan product. Absorbance of the samples was determined at 595 nm with an ELISA plate reader (Bio-Rad, Hercules, Calif.).

[3] = system: PC-3M cells; experiment: […] invasion assay; assay type: cell-based, human
Method: Invasion assays were conducted in 24-well, two compartmented, invasion chambers sold under the trademark “[sequence]” and available from Becton Dickinson, Bedford, Mass. Exponentially growing prostate cancer cell line was serum-starved for 24 hours with basal RPMI medium containing no serum or growth factors (but containing 0.1% BSA, 10 mM HEPES, 4 mM L-glutamine, 100 IU/mL penicillin G and 100 mg/mL streptomycin). The cells were then harvested and seeded at a density of 25×10^3 cells/well in the upper insert of the [sequence] invasion chamber. The lower chamber received the chemo-attractant medium, which consisted of 90% basal RPMI medium and 10% conditioned medium from the cultures of PC-3M cells expressing active Gas protein. The incubations were carried out for 24 hours, after which the [sequence] […] The number of cells migrated on the outer bottom side of the insert was counted under the microscope in six or more randomly selected fields (magnification: 100×). The final results were expressed as mean +/− SEM per 100× field. […]
To correct this probability, the growth rate of PC-3M cells was determined under identical culture conditions. […] Mean percent increase in the cell number was determined at the end of the incubation period by counting the net increase in the number of cells. […]

[4] = system: PC-3M cells; experiment: Transepithelial resistance (TER), stability of junctional complexes; assay type: cell-based, human
Method: Stability of junctional complexes can be estimated by the measurement of transepithelial resistance (TER). Cells were plated at confluency and grown on six well Transwell filters (0.4 μm pore size) in complete medium. TER values were measured in duplicate wells in every 12 hours using EVOM voltohmmeter (World Precision Instruments). The TER values were normalized to the area of the monolayer filter, and calculated by subtracting the blank values from the filter and bathing medium. All cell culture media were supplemented with 25 mM Hepes, pH 7.4, and the integrity and cell density of monolayers were carefully monitored during TER measurement studies.

[5] = system: PC-3M cells; experiment: Permeability assay (paracellular diffusion of dextran); assay type: cell-based, human; conditions: CT alone
Method: Permeability assay (Paracellular diffusion of Dextran). Cells were plated at confluency and grown on 12 well Transwell filters in complete medium for optimum TER development. Tetramethyl-rhodamine-dextran, with an average molecular mass of 4 kDa (available from Sigma in St. Louis, Mo.) dissolved in Hanks' Balanced Salt Solution (HBSS) to a concentration of 1 mg/ml was added to the upper chamber. The lower chamber was replaced with HBSS. At various time intervals, 100 μl aliquots were collected from the lower chamber and assayed […] spectrophotometer using excitation 530 and emission 590.

[6] = system: PC-3M cells; experiment: Growth rate of PC-3M cells by cell counting (correction for the invasion assay); assay type: cell-based, human; conditions: CT 50 nM, 1-24 hours; vehicle control=1
Method: To correct this probability, the growth rate of PC-3M cells was determined under identical culture conditions. 25×10^3 cells were plated at hourly intervals in six-well dishes and cultured with/without CT (50 nM) for 1-24 hours. Mean percent increase in the cell number was determined at the end of the incubation period by counting the net increase in the number of cells. […] This correction was applied to the results of invasion assays.

[7] = Substrate control (tested compound in blank media without microorganisms); assay type: physicochemical; conditions: 14 days
From the text: This conclusion was based on the rapid enzymatic actetate hydrolysis by most microbial species during biocatalytic screening while compound 22 was stable for 14 days in substrate control (tested compound in blank media without microorganisms).

[8] = 15-40 μM dose, compared to vehicle controls

CC(=O)O[C@H]1/C=C(\C)CC[C@@H]2OC(=N)S[C@@]2(C)CC[C@@H](C(C)C)/C=C/[C@@](C)(O)C1 [Compound 28, 6-O-acetyl-(1S,2E,4S,6R,7Z,11S,12S)-2,7-cembradiene-11,12-oxathiaol-21-imino-4,6-diol]
antiproliferative activity [1]: devoid of activity

C/C1=C\C(=O)C[C@](C)(O)/C=C/[C@H](C(C)C)CC/C(C)=C/CC1 [Compound 29, (1S,2E,4S,7E,11E)-2,7,11-cembratriene-4-ol-6-one]
antiproliferative activity [1]: low antiproliferative activity

C/C1=C\[C@H](O)C[C@@](C)(O)/C=C/[C@H](C(C)C)C[C@@H](O)/C(C)=C/CC1 [Compound 7, (1S,2E,4R,6R,7E,11E,13R)-2,7,11-cembratriene-4,6,13-triol]
cytotoxicity [2]: without cytotoxicity | anti-invasive activity ([3]; 50 nM dose): potent anti-invasive activity

CC(=O)O[C@H]1/C=C(\C)CC/C=C(\C)[C@@H](O)C[C@@H](C(C)C)/C=C/[C@@](C)(O)C1 [Compound 26, (1S,2E,4S,6R,7E,11E,13S)-2,7,11-cembratriene-4,6,13-triol-6-O-acetate]
antiproliferative activity [1]: much more active than the 13R | IC50 [1]: 20 µM | antiproliferative activity [1, 8]: potent antiproliferative activity

CC(=O)/C=C/C(CC/C(C)=C/CC/C(C)=C/C(C)=O)C(C)C (stereo not shown) [Compound 31, (3E,7E,12E)-11-isopropyl-4,8-dimethylpentadeca-3,7,12-triene-2,14-dione]
antiproliferative activity [1, 8]: potent antiproliferative activity

CC(C)=CCC/C(C)=C/CC/C(C)=C/CC[C@]1(C)CCc2cc(O)cc(C)c2O1 [δ-tocotrienol, reference compound]
IC50 [1]: 7 µM

CC(=O)O[C@H]1/C=C(\C)CC/C=C(\C)[C@H](O)C[C@@H](C(C)C)/C=C/[C@@](C)(O)C1 [Compound 25, (1S,2E,4S,6R,7E,11E,13R)-2,7,11-cembratriene-4,6,13-triol-6-O-acetate]
IC50 [1]: 30 µM | antiproliferative activity [1, 8]: potent antiproliferative activity

CCNC(=O)O[C@H]1/C=C(/C)CC/C=C(\C)CC[C@@H](C(C)C)/C=C/[C@](C)(O)C1 [Compound 9, 6-O-[N-(ethyl)carbamoyl](1S,2E,4R,6R,7Z,11E)-2,7,11-cembratriene-4,6-diol]
stabilization of junctional complexes ([4]; baseline and CT-stimulated TER and paracellular permeability): stabilized junctional complexes

Calcitonin (CGNLSTCMLGTYTQDFNKFHTFPQTAIGVGAP; ends and bridges not checked; cysteine pairing not given here; UniProt P01258 85-116, looked up) [CT, reference compound]
increase in the number of invaded cells ([3]; pooled data of multiple experiments): two-fold | effect on TER of PC-3M cell cultures ([4]; 50 nM CT): dramatic reduction | paracellular permeability of PC-3M cells [5]: increased | relative CT-induced increase in cell number, pooled results of all time points [6]: 1.19

CC(=O)O[C@H]1/C=C(/C)CC/C=C(\C)CC[C@@H](C(C)C)/C=C/[C@@](C)(O)C1 [Compound 22, 6-O-acetyl-(1S,2E,4S,6R,7Z,11E)-2,7,11-cembratriene-4,6-diol]
antiproliferative activity [1]: reduced activity | stability in substrate control [7]: stable

C/C1=C/C(=O)C[C@](C)(O)/C=C/[C@H](C(C)C)CC/C(C)=C/CC1 [Compound 30, (1S,2E,4S,6R,7E,11E)-2,7,11-cembratriene-4-ol-6-one]
antiproliferative activity [1]: potent antiproliferative agent | antiproliferative activity [1, 8]: potent antiproliferative activity | IC50 ([1]; Mus musculus, Epithelial cell, 96 h): 15 µM | activity relative to parent compound 21 ([1]; at higher doses): no more active
